Literature values as cited in patent US4217357A, “Inhibition of thromboxane synthetase with 3-(imidazol-1-ylalkyl)indoles” (Pfizer Inc., priority 1978, dated 1980).

How the values were obtained:
[1] = test system: human blood platelet aggregation; settings: variety of aggregating agents; cited from earlier work
rabbit = settings: intravenous arachidonic acid, rabbits; cited from earlier work
aggregation of platelets = settings: abdominal aorta of rats in vivo; cited from earlier work

## O=C1C(CC[S+]([O-])c2ccccc2)C(=O)N(c2ccccc2)N1c1ccccc1 (stereo not drawn) [sulphinpyrazone]
[1]
  inhibitory activity in vitro against aggregating agents: show inhibitory activity in vitro
rabbit
  protection from the lethal effect of arachidonic acid injection: protect the rabbit from the lethal effect of the injection
Aggregation of platelets
  prevention of aggregation of platelets in extra corporeal loop: prevent the aggregation of platelets
